Each block holds one molecule with its values, some of them ahead of it. Where a SMILES comes first, the peptide text is derived from it. Where no end group is shown, it is not given here. [ ]: non-standard residue; d: D form. The star is where a group is joined. FITC = O=C1OC2(c3ccc(O)cc3Oc3cc(O)ccc32)c2ccc(NC(=S)*)cc21; pS = N[C@@H](COP(=O)(O)O)C(=O)O; Ahx = NCCCCCC(=O)O
Experiments:
[1] = molecular target: T1, Pin1 (Homo sapiens, UniProt Q13526); test: Fluorescence polarization, FITC-Pintide binding to Pin1; details: fluorescently labelled Pintide 10 nM; FP, room temperature, 5 mM HEPES pH 7.4, 30 mM NaCl, 0.1% Tween20, 1% DMSO; triplicates; read-out: apparent Kd (Pin1 titration to fluorescently labelled Pintide)
T1 construct: His6 (TEV-cleavable) (N, cleaved yes); host or cells: E. coli BL21 (DE3)
Procedure: FP experiments were conducted using a fluorescein (FITC)‐labeled “Pintide” [5‐FITC‐(Ahx)‐WFY(pS)PFLE‐CONH2] purchased from China Peptides. FP data were collected at room temperature in buffer containing 5 mM HEPES pH 7.4, 30 mM NaCl, 0.1% v/v Tween20, and 1% v/v DMSO using Corning black, round‐bottom, low‐binding 384‐well plates. For all experiments, a fixed concentration of 10 nM fluorescently labeled Pintide and 40 μM of Pin1 protein was used. All plates were incubated for 10 min and shaken for 10 s before polarization was measured using a CLARIOstar Plus microplate reader with an excitation wavelength of 482/16 nm and an emission wavelength of 530/40 nm; dichroic mirror 504; flashes: 200. All data were analyzed using GraphPad Prism 7, and sigmoidal curves were fitted using the following Equation: Y=Bottom+Top−Bottom/1+10^Logt1/2−X*HillSlope. where Y = mP value, X = time, and Top and bottom = plateaus in mP.
Figure S1. (a) Fluorescence polarisation data for Pin1 titration to fluorescently labelled Pintide (10 nM). The apparent Kd was 0.7 µM. […] (b) Fluorescence polarisation control data showing polarisation, mP values, for the fluorescently labelled Pintide alone (Only Pintide, black), PKA in the presence of Pintide without Pin1 at 1 min and 24 h time points, and Pin1 in the presence of Pintide without PKA at 1 min and 24 h time points. […]

[2] = molecular target: T1, Pin1; test: Native MS of Pintide bound to differentially phosphorylated Pin1; format: binding; details: for % Pintide bound: 2.5 μM : 25 μM Pin1 : Pintide, 100 mM ammonium acetate, mean ± SD, triplicate
Procedure: (§1) To phosphorylate Pin1 for the native MS analysis, Pin1 (10 μM) was incubated at 30°C with 2 mM ATP, 10 mM MgCl2 (BDH Laboratory supplies), and 10,000 units PKA in 100 mM ammonium acetate pH 6.8 for 1, 3, 8, and 24 h. The concentration of PKA and Pin1 was optimized in order to detect sequential phosphorylation within the time course. At each time‐point, aliquots were taken, the reaction quenched by addition of EDTA (final concentration 20 mM), and the sample buffer exchanged using 3 kDa Amicon Ultra 0.5 mL centrifugal concentrators into 100 mM ammonium acetate pH 6.8 prior to MS analysis. Phosphorylation assays at each time‐point were carried out in triplicates, and the error was reported as the standard deviation.
Unlabeled Pintide [AcHN‐WFY(pS)PFLE‐CONH2] was purchased from China Peptides and dissolved in 100 mM ammonium acetate pH 8 to a final concentration of 1 mg/mL and stored at −80°C until use. To determine the affinity of […] for differentially phosphorylated Pin1, Pintide was added to each Pin1 phosphorylation time‐point at a 2.5 μM: 25 μM Pin1 to Pintide ratio and the sample was directly infused into the mass spectrometer. Experiments were carried out in triplicates, and the error was reported as the standard deviation.
(§2) All native MS was performed on a QExactive HF mass spectrometer (Thermo Fisher Scientific) equipped with a nanoelectrospray ionization source that used gold‐coated borosilicate glass capillaries, pulled in‐house. Positive ionization mode was used throughout, with the capillary voltage set to 1.2 kV. The source temperature was set at 250°C, in source dissociation at 0, S‐lens RF at 100. The Pin1 concentration was set to 2.5 μM and a mass range of 1500–4000 m/z was acquired. Mass spectra were acquired using a maximum ion injection time of 100 ms. The automatic gain control was set to 1 x 10^6 and the ions detected in the orbitrap with resolution set to 15,000. All data were analyzed using XCalibur (version 4.2). To quantify the abundance of unphosphorylated, phosphorylated Pin1 and Pin1‐Pintide complexes, the relative abundance of the peaks corresponding to the specific 9+, 8+, and 7+ Pin1 species of interest was summed and expressed as a percentage of all Pin1‐containing peaks detected.

[3] = molecular target: T1, Pin1; test: Chymotrypsin-coupled Pin1 PPIase assay (suc-AEPF-pNA); format: biochemical; details: in the absence of PKA, 4°C, pH 7.8
Procedure: To perform the FP and enzymatic activity assays, Pin1 was phosphorylated by incubation of 40 μM Pin1 with 10,000 units of cAMP‐dependent protein kinase (PKA) (New England BioLabs) in kinase buffer (50 mM Tris‐HCl, 10 mM MgCl2, 1 mM DTT, and pH 7.5) supplemented with 2 mM adenosine triphosphate (ATP) (New England BioLabs) at 37°C. At 1 min, 1 h, 3 h, 8 h, 12 h, 18 h, 24 h, and 32 h, aliquots were taken, and PKA activity was stopped by addition of 20 mM EDTA, and the samples were kept at −80°C prior to analysis.
Pin1 (phosphorylated or non‐phosphorylated, 80 nM), in buffer containing 35 mM HEPES, pH 7.8, was incubated with 30 mg/mL ice‐cold chymotrypsin (diluted in 1 mM HCl) (Sigma‐Aldrich) and 2.5 mM of PPIase substrate (Suc‐AEPF‐pNA in 460 mM LiCl in trifluoroethanol) (#SAP‐3947‐PI, Vivitide) in a 1 mL cuvette. pNA release was measured at 4°C for 1 min on a Cary 300 UV–visible spectrophotometer using an absorption wavelength at 390 nm.
The data were collected in triplicate and analyzed using GraphPad Prism 7. The data were reported as the mean ± standard error of the mean.

[4] = test system: cAMP-dependent protein kinase (PKA); test: Native MS of Pin1 phosphorylation by PKA; format: biochemical; details: 30°C, pH 6.8, mean ± SD, triplicate
Procedure: as §1, §2

[5] = test system: cAMP-dependent protein kinase (PKA); test: LC-MS/MS phosphosite occupancy of Pin1 upon incubation with PKA (Lys-C digestion); format: biochemical; details: triplicate
Procedure: as §1
Phosphorylated Pin1 was digested with either trypsin (Promega) or the endoproteinase Lys‐C (Promega) at a 1:50 ratio of enzyme: protein. To localize the phosphorylation sites, trypsin digestion was performed. To quantify the phosphosite occupancy over the phosphorylation time‐course, differentially phosphorylated Pin1 was digested with Lys‐C. For both enzymatic reactions, Pin1 was digested in 100 mM ammonium bicarbonate pH 8.0 for 3 h at 37°C, and the reaction was quenched by the addition of formic acid (2% v/v final concentration). All peptides were separated using an UltiMate 3000 HPLC series, which was either coupled to a QExactive HF or Orbitrap Eclipse mass spectrometer (Thermo Fisher Scientific). […] To quantify the extent of phosphorylation on Pin1, MS/MS was performed on the QExactive HF mass spectrometer. […]
To quantify the abundance of phosphorylated peptides, the retention time of the eluted peptides was identified using Proteomic Discoverer v.2.5. Spectra were averaged across the peptides chromatographic peak, and the percentage of phosphorylated peptide was calculated as a percentage of the total abundance of unphosphorylated and phosphorylated peptide. Full details of the peptides used for quantitation are detailed in the Supporting Information (Table S4).

[6] = test system: cAMP-dependent protein kinase (PKA); test: LC-MS/MS (EThcD) of additional Pin1 phosphosites after PKA incubation (trypsin digestion); format: biochemical; details: 24 h with PKA, not consistently detected across timepoints
Procedure: Phosphorylated Pin1 was digested with either trypsin (Promega) or the endoproteinase Lys‐C (Promega) at a 1:50 ratio of enzyme: protein. To localize the phosphorylation sites, trypsin digestion was performed. To quantify the phosphosite occupancy over the phosphorylation time‐course, differentially phosphorylated Pin1 was digested with Lys‐C. For both enzymatic reactions, Pin1 was digested in 100 mM ammonium bicarbonate pH 8.0 for 3 h at 37°C, and the reaction was quenched by the addition of formic acid (2% v/v final concentration). All peptides were separated using an UltiMate 3000 HPLC series, which was either coupled to a QExactive HF or Orbitrap Eclipse mass spectrometer (Thermo Fisher Scientific). Peptides were desalted on a PepMap100 C18 nanoViper trap column (75 μM x 2 cm, […] particle size) (Thermo Fisher Scientific) and separated with a PepMap100 C18 nanoViper analytical column (75 μM x 15 cm, […] particle size) (Thermo Fisher Scientific) using mobile phase A (H2O and 0.1% formic acid) and mobile phase B (100% acetonitrile and 0.1% formic acid) and eluted using a gradient from […] to 44% B over 30 min. The column flow rate was set to 350 nL/min with the column temperature set at 40°C. To quantify the extent of phosphorylation on Pin1, MS/MS was performed on the QExactive HF mass spectrometer. […]
To prevent phospho‐loss resulting in misassignment of the phosphosite location (Boersema et al., [2009]), electron transfer dissociation with supplemental HCD (EThcD) was performed on the trypsin‐digested peptides to localize the phosphosites. […] ETD was performed using an automatically determined reagent time set based on precursor charge state. […] Fragment ions were detected in the Orbitrap using a resolution setting of 30,000. […]
All RAW files were processed and analyzed using Proteome Discoverer version 2.5. […] Additional phosphosites, Ser58, Ser65, and Ser67 (Table S4) were detected after 24 h of incubation with PKA, however, these were not consistently detected across all timepoints and, therefore, were excluded from phosphosite quantitation. […]

[7] = molecular target: Pin1 phosphorylated at Ser71 (singly phosphorylated Pin1) (UniProt Q13526); test: fluorescence polarisation; time course: Pin1 (40 uM) incubated with PKA and ATP at 37 C for 1 min to 32 h, stopped with 20 mM EDTA, then 10 nM FITC-Pintide; room temperature, 5 mM HEPES pH 7.4, 30 mM NaCl, 0.1% Tween20, 1% DMSO; control without PKA
Sequence of Pin1 phosphorylated at Ser71 (singly phosphorylated Pin1) (Q13526 whole entry): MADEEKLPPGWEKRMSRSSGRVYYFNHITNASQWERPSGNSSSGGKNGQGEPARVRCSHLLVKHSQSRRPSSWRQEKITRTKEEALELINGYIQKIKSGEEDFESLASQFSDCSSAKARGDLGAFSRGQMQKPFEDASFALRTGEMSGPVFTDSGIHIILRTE

T1 sequence (Q13526 whole entry): as above

Molecule: AcHN‐WFY(pS)PFLE‐CONH2 [Pintide]
% Pintide bound ([2]; 0 phosphosites on Pin1): 39 ± 5%
% Pintide bound ([2]; 1 phosphosite on Pin1, * p <0.05 (ANOVA, Tukey HSD)): 26 ± 6* %
% Pintide bound ([2]; 2 phosphosites on Pin1, ** p <0.01 (ANOVA, Tukey HSD)): 4 ± 1** %
Pin1 binding to Pintide ([2]; Pin1 phosphorylated at Ser71, versus unphosphorylated, native MS): small, yet significant, difference

Molecule: Pin1: peptidyl‐prolyl cis‐trans isomerase comprising N-terminal WW domain and C-terminal PPIase domain
absorption at 390 nm upon addition of Pin1 to the substrate (catalytic activity) [3]: increased
relative abundance of doubly phosphorylated Pin1 ([4]; 3 h incubation with PKA): ~ 65 ± 23%
relative abundance of doubly phosphorylated Pin1 ([4]; 8 h incubation with PKA): 85% ± 11
relative abundance of Pin1 with two phosphorylation sites ([4]; 24 h incubation with PKA): 95% ± 0.01
phosphorylation occupancy of Ser16 ([5]; 1 h incubation with PKA): 4%
phosphorylation occupancy of Ser71 ([5]; 1 h incubation with PKA): ~ 90%
phosphorylation occupancy of Ser16 ([5]; 24 h incubation with PKA): ~ 80%
Phosphorylation Stoichiometry (24h), Ser58 [6]: 0.19
Phosphorylation Stoichiometry (24h), Ser65 [6]: 0.05
Phosphorylation Stoichiometry (24h), Ser67 [6]: 0.05

The next lines start with the values.

Kd [1]: 700 nM
Molecule: CC(C)C[C@H](NC(=O)[C@H](Cc1ccccc1)NC(=O)[C@@H]1CCCN1C(=O)[C@H](COP(=O)(O)O)NC(=O)[C@H](Cc1ccc(O)cc1)NC(=O)[C@H](Cc1ccccc1)NC(=O)[C@H](Cc1c[nH]c2ccccc12)NC(=O)CCCCCNC(=S)Nc1ccc2c(c1)C(=O)OC21c2ccc(O)cc2Oc2cc(O)ccc21)C(=O)N[C@@H](CCC(=O)O)C(N)=O [FITC‐Pintide, 5‐FITC‐(Ahx)‐WFY(pS)PFLE‐CONH2] ({FITC-Ahx}-WFY[pS]PFLE-NH2)

% of binding inhibited after 1 h with PKA [7]: 16%
Molecule: WFY[pS]PFLE-NH2 (not fully specified (N-terminus); printed as 5‐FITC‐(Ahx)‐WFY(pS)PFLE‐CONH_2_) [FITC-Pintide [5-FITC-(Ahx)-WFY(pS)PFLE-CONH2]]
